Data set [1] in a line: Half life in Sprague-Dawley rat at 1 mg/kg, iv by LC-MS/MS analysis. The format is ADME, organism-based. Particulars: in vivo.
Data set [2] can be described thus: Clearance in Sprague-Dawley rat at 1 mg/kg, iv by LC-MS/MS analysis. The format is ADME, organism-based. Particulars: in vivo.
A short description of data set [3]: Volume of distribution at steady state in Sprague-Dawley rat at 1 mg/kg, iv by LC-MS/MS analysis. Type of data set: ADME, organism-based. Particulars: in vivo, read-out: Vdss.
Data set [4] is described as follows: AUC (0 to infinity) in Sprague-Dawley rat at 1 mg/kg, iv by LC-MS/MS analysis. The following applies: in vivo. Set-up: dose 1 mg/kg, time infinity, route intravenous. The format is ADME, organism-based.
The nature of data set [5]: Half life in Sprague-Dawley rat at 5 mg/kg, po by LC-MS/MS analysis. Particulars: in vivo. The format is ADME, organism-based.
The nature of data set [6]: Cmax in Sprague-Dawley rat at 5 mg/kg, po by LC-MS/MS analysis. Particulars: in vivo. The format is ADME, organism-based. Set-up: dose 5 mg/kg, route oral.
A short description of data set [7]: AUC (0 to infinity) in Sprague-Dawley rat at 5 mg/kg, po by LC-MS/MS analysis. The format is ADME, organism-based. Particulars: in vivo. Set-up: dose 5 mg/kg, route oral, time infinity.
Data set [8] can be described thus: Oral bioavailability in Sprague-Dawley rat at 5 mg/kg by LC-MS/MS analysis. The format is ADME, organism-based. Particulars: in vivo.
A short description of data set [9]: Drug level in tumor of nude BALB/c mouse xenografted with human HCT116 cells at 20 mg/kg, po administered as single dose measured after 48 hrs by LC-MS/MS analysis. Type of data set: ADME, organism-based, Neoplasm. Particulars: read-out: Drug uptake.

Each structure is given as a SMILES string.

As for `COc1ncc(-c2ccc3ncc(-c4nnc(CCN5CCN(C)CC5)o4)n3c2)cc1NS(=O)(=O)c1ccc(F)cc1F`, the values for the half-life in data set [1] and in [5] were 4.71 h and 7.94 h, respectively. Besides, the clearance in data set [2] is 5.66 mL/min/kg. Also, the Vd in data set [3] is 0.69 L/kg. The total exposure AUC(0-inf) in data set [4] is 2960 ng·h/mL; in data set [7] it was 3960 ng·h/mL. For the same compound, the maximum concentration (Cmax) in [6] worked out at 553 ng/mL. Moreover, in data set [8], the bioavailability was 26.8%. The concentration at 48 h in data set [9] amounted to 600 nM.

These data come from ChEMBL document CHEMBL4354853, “Design, Synthesis, and Biological Evaluation of Imidazo[1,2-a]pyridine Derivatives as Novel PI3K/mTOR Dual Inhibitors” (J Med Chem, 2020).
